Measurements taken from ChEMBL document CHEMBL1122074 (1982).
The source made the active and inactive calls. The rule behind the calls is not given here.

Key:
[1] = target: T1, Opioid receptor (Mus musculus) (UniProt P42866+P32300+P33534); assay: In vitro relative potency to morphine (IC50, 4.4E-8M) in mouse vas deferens was determined; inactive (potentiates contraction at >/=1.6E-6M); format: functional, tissue-based
[2] = target: T1, Opioid receptor (Mus musculus); assay: […] relative molar potency represents the morphine ED50 ([…])/compound ED50 using the hotplate procedure in mice; inactive at 140 umol/kg; format: functional
[3] = target: Opioid receptors; mu/kappa/delta (Homo sapiens) (UniProt P41145+P41143+P35372); assay: In vitro relative potency to morphine (IC50, 6.8E-8M) in guinea pig ileum was determined; inactive (potentiates contraction at >/=5.4E-8M); format: functional, tissue-based; details: Cavia porcellus, target entry is the homologue from another species
Chain of Opioid receptors; mu/kappa/delta (Homo sapiens) (P35372 whole entry, looked up): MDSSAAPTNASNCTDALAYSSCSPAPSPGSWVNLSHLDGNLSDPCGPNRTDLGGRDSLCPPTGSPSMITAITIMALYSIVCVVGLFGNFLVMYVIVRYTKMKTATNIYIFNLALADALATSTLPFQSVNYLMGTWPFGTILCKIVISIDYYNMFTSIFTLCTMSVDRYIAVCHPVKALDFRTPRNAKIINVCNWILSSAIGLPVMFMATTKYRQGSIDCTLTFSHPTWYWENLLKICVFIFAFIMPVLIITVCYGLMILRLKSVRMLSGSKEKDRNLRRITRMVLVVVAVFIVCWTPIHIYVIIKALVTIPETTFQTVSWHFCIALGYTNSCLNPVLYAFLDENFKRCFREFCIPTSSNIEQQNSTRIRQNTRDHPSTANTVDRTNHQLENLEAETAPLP
Chain of Opioid receptors; mu/kappa/delta (Homo sapiens) (P41143 whole entry, looked up): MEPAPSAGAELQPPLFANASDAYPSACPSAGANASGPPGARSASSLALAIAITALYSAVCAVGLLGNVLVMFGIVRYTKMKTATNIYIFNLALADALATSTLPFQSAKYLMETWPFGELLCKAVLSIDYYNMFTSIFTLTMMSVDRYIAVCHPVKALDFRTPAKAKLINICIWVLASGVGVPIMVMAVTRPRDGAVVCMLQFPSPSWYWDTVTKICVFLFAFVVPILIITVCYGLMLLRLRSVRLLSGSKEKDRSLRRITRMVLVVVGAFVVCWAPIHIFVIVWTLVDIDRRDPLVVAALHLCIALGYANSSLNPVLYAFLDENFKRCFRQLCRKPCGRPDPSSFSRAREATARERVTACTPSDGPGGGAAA
Chain of Opioid receptors; mu/kappa/delta (Homo sapiens) (P41145 whole entry, looked up): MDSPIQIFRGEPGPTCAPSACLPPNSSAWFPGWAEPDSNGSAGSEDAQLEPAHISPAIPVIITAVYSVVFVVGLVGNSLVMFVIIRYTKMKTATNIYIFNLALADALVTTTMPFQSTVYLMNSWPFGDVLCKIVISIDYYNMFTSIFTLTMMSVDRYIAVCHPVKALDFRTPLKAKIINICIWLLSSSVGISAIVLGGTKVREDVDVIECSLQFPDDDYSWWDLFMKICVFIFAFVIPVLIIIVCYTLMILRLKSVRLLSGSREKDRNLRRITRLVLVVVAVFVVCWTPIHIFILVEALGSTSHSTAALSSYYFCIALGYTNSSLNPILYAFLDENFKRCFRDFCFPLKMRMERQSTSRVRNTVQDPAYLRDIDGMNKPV

[4] = Molar potency (1/IC50) in the guinea pig ileum divided by its potency in the mouse vas deferens.; format: functional

T1 sequence (P32300 whole entry, looked up): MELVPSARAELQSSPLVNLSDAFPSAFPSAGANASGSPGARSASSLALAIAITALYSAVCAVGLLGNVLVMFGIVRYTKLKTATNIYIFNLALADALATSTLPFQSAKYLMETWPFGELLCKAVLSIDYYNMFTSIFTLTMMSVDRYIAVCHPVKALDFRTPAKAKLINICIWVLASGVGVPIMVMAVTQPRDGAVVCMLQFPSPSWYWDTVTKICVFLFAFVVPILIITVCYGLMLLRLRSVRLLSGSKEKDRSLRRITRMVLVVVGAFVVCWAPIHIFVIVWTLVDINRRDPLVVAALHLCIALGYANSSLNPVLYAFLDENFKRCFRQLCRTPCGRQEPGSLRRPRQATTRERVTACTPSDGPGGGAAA
T1 sequence (P33534 whole entry, looked up): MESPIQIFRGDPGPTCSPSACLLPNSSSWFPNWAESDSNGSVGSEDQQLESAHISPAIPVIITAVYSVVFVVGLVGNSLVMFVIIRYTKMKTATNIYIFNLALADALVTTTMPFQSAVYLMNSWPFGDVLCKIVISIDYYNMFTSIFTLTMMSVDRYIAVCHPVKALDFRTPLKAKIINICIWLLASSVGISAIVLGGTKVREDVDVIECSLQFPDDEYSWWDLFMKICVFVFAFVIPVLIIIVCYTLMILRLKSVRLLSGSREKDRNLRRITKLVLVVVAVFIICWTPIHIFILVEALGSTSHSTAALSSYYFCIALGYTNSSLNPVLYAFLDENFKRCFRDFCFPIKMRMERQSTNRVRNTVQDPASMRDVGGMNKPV
T1 sequence (P42866 whole entry, looked up): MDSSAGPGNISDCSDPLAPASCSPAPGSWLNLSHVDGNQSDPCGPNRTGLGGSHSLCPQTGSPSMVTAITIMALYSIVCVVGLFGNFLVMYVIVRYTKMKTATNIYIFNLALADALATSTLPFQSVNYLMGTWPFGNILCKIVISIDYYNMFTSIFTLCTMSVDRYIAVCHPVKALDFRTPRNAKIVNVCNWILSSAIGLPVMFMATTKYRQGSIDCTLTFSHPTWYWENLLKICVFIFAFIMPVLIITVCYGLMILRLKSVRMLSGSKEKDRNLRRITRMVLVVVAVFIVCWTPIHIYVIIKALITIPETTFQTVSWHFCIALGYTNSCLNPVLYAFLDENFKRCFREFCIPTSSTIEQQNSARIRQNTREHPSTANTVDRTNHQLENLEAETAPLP

Compound	Relative molar potency [1]	Relative molar potency [2]	Relative molar potency [3]	Molar potency [4]
CCC(=O)C(c1ccccc1)(c1ccccc1)[C@@H](C)[C@H](C)N(C)C (racemic)	inactive	inactive	inactive	
CCC(=O)C(c1ccccc1)(c1ccccc1)[C@H](C)[C@H](C)N(C)C (single isomer, unassigned)				1.7
CCC(=O)C(c1ccccc1)(c1ccccc1)C(C)CN(C)C (single isomer, unassigned)				2.3
CCC(=O)C(c1ccccc1)(c1ccccc1)[C@@H](C)[C@@H](C)N(C)C (single isomer, unassigned)				6.9
CN1CC[C@]23c4c5ccc(O)c4O[C@H]2[C@@H](O)C=C[C@H]3[C@H]1C5 [MORPHINE]				6.5
